biological target: factor B (Homo sapiens, UniProt P00751); assay: factor B inhibition assay of Biological Example 1; type: biochemical; design: CVF-Bb complex prepared from purified cobra venom factor (1 μM), recombinant human complement factor B; made in house; host or cells: drosophila cells (factor B); E. coli (factor D used to form the complex); conditions: IC50 (nM), assay of Biological Example 1 (Table 1)
Sequence (P00751 260-764 limits assumed): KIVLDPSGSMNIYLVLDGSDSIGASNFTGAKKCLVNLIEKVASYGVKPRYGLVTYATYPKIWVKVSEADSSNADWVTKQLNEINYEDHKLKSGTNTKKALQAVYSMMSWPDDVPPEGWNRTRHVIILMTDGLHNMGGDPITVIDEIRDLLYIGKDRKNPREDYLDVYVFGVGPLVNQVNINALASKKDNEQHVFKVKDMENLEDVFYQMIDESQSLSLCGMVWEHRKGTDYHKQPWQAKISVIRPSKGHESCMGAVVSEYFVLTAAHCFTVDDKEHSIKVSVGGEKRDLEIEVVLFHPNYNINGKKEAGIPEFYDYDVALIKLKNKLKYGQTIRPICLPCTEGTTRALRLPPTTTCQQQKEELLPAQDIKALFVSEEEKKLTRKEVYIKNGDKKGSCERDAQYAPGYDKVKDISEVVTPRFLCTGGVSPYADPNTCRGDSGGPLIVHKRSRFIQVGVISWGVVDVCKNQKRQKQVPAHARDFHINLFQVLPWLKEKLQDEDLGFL
Sequence (Q91132 23-649 partner limits assumed): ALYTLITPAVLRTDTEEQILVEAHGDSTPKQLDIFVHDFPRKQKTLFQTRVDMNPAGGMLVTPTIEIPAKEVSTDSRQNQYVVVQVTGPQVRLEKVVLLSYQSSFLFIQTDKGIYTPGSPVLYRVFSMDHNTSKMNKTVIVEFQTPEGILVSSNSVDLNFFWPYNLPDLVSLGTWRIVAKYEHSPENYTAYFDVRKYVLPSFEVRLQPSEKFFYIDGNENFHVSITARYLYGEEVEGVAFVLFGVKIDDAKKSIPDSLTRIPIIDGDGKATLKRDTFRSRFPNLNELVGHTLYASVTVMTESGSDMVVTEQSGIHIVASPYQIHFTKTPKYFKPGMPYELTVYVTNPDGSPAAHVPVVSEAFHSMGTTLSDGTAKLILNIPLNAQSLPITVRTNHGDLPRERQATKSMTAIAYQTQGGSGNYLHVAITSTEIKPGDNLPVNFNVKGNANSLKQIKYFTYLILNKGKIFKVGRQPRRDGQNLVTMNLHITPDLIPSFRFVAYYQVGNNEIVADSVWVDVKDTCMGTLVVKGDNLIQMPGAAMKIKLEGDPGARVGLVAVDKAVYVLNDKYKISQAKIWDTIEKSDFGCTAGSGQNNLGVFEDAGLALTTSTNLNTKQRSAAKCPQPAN
Sequence (Q91132 733-984 partner limits assumed): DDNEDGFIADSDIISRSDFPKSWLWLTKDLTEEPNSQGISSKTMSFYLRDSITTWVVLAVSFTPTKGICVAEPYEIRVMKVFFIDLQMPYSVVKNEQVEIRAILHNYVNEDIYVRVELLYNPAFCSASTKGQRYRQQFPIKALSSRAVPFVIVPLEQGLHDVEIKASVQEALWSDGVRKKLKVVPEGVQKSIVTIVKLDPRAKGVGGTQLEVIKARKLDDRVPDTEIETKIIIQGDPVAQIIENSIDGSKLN
Sequence (Q91132 1264-1642 partner limits assumed): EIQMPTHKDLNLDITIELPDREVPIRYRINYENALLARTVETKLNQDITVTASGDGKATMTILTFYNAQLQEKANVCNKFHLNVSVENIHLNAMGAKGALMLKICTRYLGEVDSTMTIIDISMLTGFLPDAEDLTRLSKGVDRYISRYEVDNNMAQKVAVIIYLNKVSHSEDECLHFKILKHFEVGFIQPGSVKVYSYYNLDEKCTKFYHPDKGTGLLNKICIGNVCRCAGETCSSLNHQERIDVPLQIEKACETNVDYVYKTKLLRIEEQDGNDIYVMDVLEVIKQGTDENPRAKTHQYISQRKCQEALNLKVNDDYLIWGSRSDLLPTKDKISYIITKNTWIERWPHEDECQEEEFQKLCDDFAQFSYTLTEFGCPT

Q: Which IC50 does the source give for COc1cc(C)c2[nH]ccc2c1C(N)c1nc2cc(C#N)ccc2[nH]1 (single isomer, unassigned) [39-C b) (tr = 24.1 min), (−) or (+)-2-(amino(5-methoxy-7-methyl-1H-indol-4-yl)methyl)-1H-benzo[d]imidazole-5-carbonitrile] here?
A: 8 nM

Q: How did the IC50 turn out when COc1cc(C)c2[nH]ccc2c1C(C)(O)c1nc2cc(C#N)ccc2[nH]1 (racemic) [26-C b) (−), (−)-2-(1-hydroxy-1-(5-methoxy-7-methyl-1H-indol-4-yl)ethyl)-1H-benzo[d]imidazole-5-carbonitrile] was run?
A: 80 nM

Q: With COc1cc(C)c2[nH]cc(Cl)c2c1C(C)(O)c1nc2cc(C#N)ccc2[nH]1 (single isomer, unassigned) [Example 29-A, (−) or (+)-2-(1-(3-Chloro-5-methoxy-7-methyl-1H-indol-4-yl)-1-hydroxyethyl)-1H-benzo[d]imidazole-5-carbonitrile] as the compound, how does the IC50 read?
A: 2030 nM

Q: For COc1cc(C)c2[nH]ccc2c1C(O)c1nc2cc(C#N)ccc2[nH]1 (single isomer, unassigned; (+)) [24-B b) (+), (+)-2-(hydroxy(5-methoxy-7-methyl-1H-indol-4-yl)methyl)-1H-benzo[d]imidazole-5-carbonitrile], which IC50 is on record?
A: 370 nM

Q: With [2H]C([2H])([2H])OC(C)(c1nc2cc(C#N)ccc2[nH]1)c1c(OC)cc(C)c2[nH]ccc12 (single isomer, unassigned; (-)) [27-F b) (−), (−)-2-(1-(^2H3)methoxy-1-(5-methoxy-7-methyl-1H-indol-4-yl)ethyl)-1H-benzo[d]imidazole-5-carbonitrile] as the compound, how does the IC50 read?
A: 9 nM

Q: Which IC50 does the source give for Cc1cc(C)c2[nH]ccc2c1C(O)(c1nc2cc(C#N)ccc2[nH]1)C(F)(F)F (single isomer, unassigned; (+)) [80-D b) (+), (+)-2-(1-(5,7-dimethyl-1H-indol-4-yl)-2,2,2-trifluoro-1-hydroxyethyl)-1H-benzo[d]imidazole-5-carbonitrile] here?
A: 4330 nM

Q: Which IC50 does the source give for Cc1cc(Cl)c(Cc2nc3cc(C#N)ccc3[nH]2)c2cc[nH]c12 [Example 63-B] here?
A: 260 nM

Q: How did the IC50 turn out when CCc1cc(C)c2[nH]ccc2c1C(C)(O)c1nc2cc(C#N)ccc2[nH]1 (single isomer, unassigned; (-)) [77-C b) (−), (−)-2-(1-(5-ethyl-7-methyl-1H-indol-4-yl)-1-hydroxyethyl)-1H-benzo[d]imidazole-5-carbonitrile] was run?
A: 20 nM

Q: COc1cc(C)c2c(c1C(C)(OC)c1nc3cc(C#N)ccc3[nH]1)CCN2 (single isomer, unassigned; (-)) [124 b) (−), (−)-2-(1-methoxy-1-(5-methoxy-7-methylindolin-4-yl)ethyl)-1H-benzo[d]imidazole-5-carbonitrile] was tested. Which IC50 did it give?
A: 11 nM

Q: With COC(C)(c1nc2cc(C#N)ccc2[nH]1)c1c(C)cc(C)c2[nH]ccc12 (single isomer, unassigned; (-)) [84-B b) (−), (−)-2-(1-(5,7-dimethyl-1H-indol-4-yl)-1-methoxyethyl)-1H-benzo[d]imidazole-5-carbonitrile] as the compound, how does the IC50 read?
A: 50 nM

Q: COc1cc(C)c2[nH]ccc2c1C(O)c1cc2cc(C#N)ccc2[nH]1 (racemic) [Example 136, (±)-2-(hydroxy(5-methoxy-7-methyl-1H-indol-4-yl)methyl)-1H-indole-5-carbonitrile] was tested. Which IC50 did it give?
A: 20 nM

Q: How did the IC50 turn out when Cc1cc(C)c2[nH]ccc2c1C(O)(c1ccccc1)c1nc2cc(C#N)ccc2[nH]1 (stereo not shown) [Example 79-I] was run?
A: 660 nM

Q: How did the IC50 turn out when COc1cc(C)c2[nH]ccc2c1C(C)(OC)c1nc2cc(C#N)ccc2o1 (racemic) [127-B a), (±)-2-(1-methoxy-1-(5-methoxy-7-methyl-1H-indol-4-yl)ethyl)benzo[d]oxazole-5-carbonitrile] was run?
A: 330 nM

Q: Which IC50 does the source give for CNC(C)(c1nc2cc(C#N)ccc2[nH]1)c1c(OC)cc(C)c2[nH]ccc12 (single isomer, unassigned; (-)) [42-D b) (−), (−)-2-(1-(5-methoxy-7-methyl-1H-indol-4-yl)-1-(methylamino)ethyl)-1H-benzo[d]imidazole-5-carbonitrile] here?
A: 5 nM

Q: Which IC50 does the source give for Cc1cc(C2CC2)c(C(O)(c2nc3cc(C#N)ccc3[nH]2)C(F)(F)F)c2cc[nH]c12 (single isomer, unassigned; (-)) [80-E b) (−), (−)-2-(1-(5-cyclopropyl-7-methyl-1H-indol-4-yl)-2,2,2-trifluoro-1-hydroxyethyl)-1H-benzo[d]imidazole-5-carbonitrile] here?
A: 10 nM

Q: COc1cc(C)c2[nH]ccc2c1C(O)c1cc2ccc(C#N)cc2o1 (racemic) [Example 133-B, (±)-2-(hydroxy(5-methoxy-7-methyl-1H-indol-4-yl)methyl)benzofuran-6-carbonitrile] was tested. Which IC50 did it give?
A: 100 nM

Q: For CCc1cc(C)c2[nH]cc(-c3ccccc3)c2c1C(O)c1nc2cc(C#N)ccc2[nH]1 (racemic) [Example 117-F, (±)-2-((5-Ethyl-7-methyl-3-phenyl-1H-indol-4-yl)(hydroxy)methyl)-1H-benzo[d]imidazole-5-carbonitrile], which IC50 is on record?
A: 70 nM

Q: Cc1cc(S(C)(=O)=O)c(C(C)(O)c2nc3cc(C#N)ccc3[nH]2)c2cc[nH]c12 (single isomer, unassigned) [11-C b) (tr = 3 min), (+) or (−)-2-(1-hydroxy-1-(7-methyl-5-(methylsulfonyl)-1H-indol-4-yl)ethyl)-1H-benzo[d]imidazole-5-carbonitrile] was tested. Which IC50 did it give?
A: 90 nM

Q: With COc1cc(C)c2[nH]ccc2c1C(N)c1nc2cc(C#N)ccc2[nH]1 (single isomer, unassigned) [39-C b) (tr = 30.6 min), (+) or (−)-2-(amino(5-methoxy-7-methyl-1H-indol-4-yl)methyl)-1H-benzo[d]imidazole-5-carbonitrile] as the compound, how does the IC50 read?
A: 190 nM

Q: Which IC50 does the source give for COC(C)(c1nc2cc(C#N)ccc2[nH]1)c1c(CC(C)C)cc(C)c2[nH]ccc12 (single isomer, unassigned; (+)) [84-E b) (+), (+)-2-(1-(5-isobutyl-7-methyl-1H-indol-4-yl)-1-methoxyethyl)-1H-benzo[d]imidazole-5-carbonitrile] here?
A: 1200 nM

Q: Cc1cc(S(C)(=O)=O)c(C(O)c2nc3cc(C#N)ccc3[nH]2)c2cc[nH]c12 (racemic) [Example 10-C, (±)-2-(Hydroxy(7-methyl-5-(methylsulfonyl)-1H-indol-4-yl)methyl)-1H-benzo[d]imidazole-5-carbonitrile] was tested. Which IC50 did it give?
A: 1360 nM

Q: With [2H]C([2H])([2H])Oc1cc(Cl)c2[nH]ccc2c1C(O)c1nc2cc(C#N)ccc2[nH]1 (stereo not shown) [Example 24-E] as the compound, how does the IC50 read?
A: 1110 nM

Q: Which IC50 does the source give for COC(C)(c1nc2cc(C#N)ccc2[nH]1)c1c(CC(C)C)cc(C)c2[nH]ccc12 (single isomer, unassigned; (-)) [84-E b) (−), (−)-2-(1-(5-isobutyl-7-methyl-1H-indol-4-yl)-1-methoxyethyl)-1H-benzo[d]imidazole-5-carbonitrile] here?
A: 260 nM

Q: Which IC50 does the source give for COc1cc(C)c2[nH]ccc2c1C(C)(N)c1nc2cc(C#N)ccc2o1 (single isomer, unassigned; (+)) [131-B b) (+), (+)-2-(1-amino-1-(5-methoxy-7-methyl-1H-indol-4-yl)ethyl)benzo[d]oxazole-5-carbonitrile] here?
A: 140 nM

Q: For C=C(c1nc2cc(C#N)ccc2[nH]1)c1c(OC)cc(C)c2[nH]ccc12 [Example 115, 2-(1-(5-Methoxy-7-methyl-1H-indol-4-yl)vinyl)-1H-benzo[d]imidazole-5-carbonitrile], which IC50 is on record?
A: 30 nM

Q: With CCc1cc(C)c2[nH]ccc2c1C(OC)c1nc2cc(C#N)ccc2[nH]1 (single isomer, unassigned; (+)) [70-D b) (+), (+)-2-((5-ethyl-7-methyl-1H-indol-4-yl)(methoxy)methyl)-1H-benzo[d]imidazole-5-carbonitrile] as the compound, how does the IC50 read?
A: 950 nM

Q: Which IC50 does the source give for Cc1cc(C)c2[nH]cc(Cl)c2c1Cc1nc2cc(C#N)ccc2[nH]1 [Example 86, 2-((3-Chloro-5,7-dimethyl-1H-indol-4-yl)methyl)-1H-benzo[d]imidazole-5-carbonitrile] here?
A: 270 nM

Q: For CCc1cc(C)c2[nH]cc(C#N)c2c1C(OC)c1nc2cc(C#N)ccc2[nH]1 (single isomer, unassigned; (-)) [Example 91, (−)-2-((3-Cyano-5-ethyl-7-methyl-1H-indol-4-yl)(methoxy)methyl)-1H-benzo[d]imidazole-5-carbonitrile], which IC50 is on record?
A: 420 nM

Q: Which IC50 does the source give for Cc1cc(CO)c(C(O)(c2nc3cc(C#N)ccc3[nH]2)C(F)(F)F)c2cc[nH]c12 (racemic) [Example 81-E, (±)-2-(2,2,2-Trifluoro-1-hydroxy-1-(5-(hydroxymethyl)-7-methyl-1H-indol-4-yl)ethyl)-1H-benzo[d]imidazole-5-carbonitrile] here?
A: 1640 nM

Q: COC(c1nc2cc(C#N)ccc2[nH]1)c1c(CC(C)C)cc(C)c2[nH]ccc12 (single isomer, unassigned; (-)) [71 b) (−), (−)-2-((5-isobutyl-7-methyl-1H-indol-4-yl)(methoxy)methyl)-1H-benzo[d]imidazole-5-carbonitrile] was tested. Which IC50 did it give?
A: 4590 nM

Q: Which IC50 does the source give for COc1cc(C)c2[nH]ccc2c1C(C)(C)c1nc2cc(C#N)ccc2[nH]1 [Example 122-C, 2-(2-(5-Methoxy-7-methyl-1H-indol-4-yl)propan-2-yl)-1H-benzo[d]imidazole-5-carbonitrile] here?
A: 5 nM

Q: Which IC50 does the source give for COCc1cc(C)c2[nH]ccc2c1Cc1nc2cc(C#N)ccc2[nH]1 [Example 63-D] here?
A: 1100 nM

Q: For CCc1cc(C)c2[nH]ccc2c1C(O)c1nc2cc(C#N)ccc2[nH]1 (single isomer, unassigned; (-)) [67-A b) (−), (−)-2-((5-ethyl-7-methyl-1H-indol-4-yl)(hydroxy)methyl)-1H-benzo[d]imidazole-5-carbonitrile], which IC50 is on record?
A: 160 nM

Q: Which IC50 does the source give for CCOc1cc(C)c2[nH]ccc2c1C(O)c1nc2cc(C#N)ccc2[nH]1 (single isomer, unassigned; (+)) [24-C b) (+), (+)-2-((5-ethoxy-7-methyl-1H-indol-4-yl)(hydroxy)methyl)-1H-benzo[d]imidazole-5-carbonitrile] here?
A: 6050 nM
